The subject of assay [1] is human prostate LNCap tumor cell line. The experiment in a line: In vitro cell culture growth assay (MTS), LNCap. Type of assay: cell-based. Conditions: 72 h, three days after drug treatment. How it is done:
(§1) Cell Lines used are human prostate LNCap and human breast MDA468 tumor cell lines. Cells are plated in 96-well culture plates at approximately 3000 cells per well. […] Three days after drug treatment, viable cell densities are determined by cell mediated metabolic conversion of the dye MTS, a well-established indicator of cell proliferation in vitro. Cell growth assays are performed using kits purchased from Promega Corporation (Madison, Wis.), following the protocol provided by the vendor. Measuring absorbance at 490 nm generates MTS assay results. Compound effect on cell proliferation is assessed relative to untreated control cell growth.

The subject of assay [2] is human breast MDA468 tumor cell line. The experiment in a line: In vitro cell culture growth assay (MTS), MDA468. Type of assay: cell-based. Conditions: 72 h, three days after drug treatment. As for the experimental part:
as §1

Assay [3] deals with PI3K-gamma (Homo sapiens, UniProt P48736). The experiment in a line: PI3K-gamma fluorescence polarization assay. Type of assay: biochemical. As to conditions: read-out: PI3 Kinase γ IC50. The procedure, abridged: (§2)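 Diluted enzyme and compound (1% DMSO) reacted with diC8 PIP2 and ATP substrate in 20 mM HEPES pH 7.5, 2 mM MgCl2, 0.05% CHAPS for 30–60 min. Stopped with EDTA buffer holding 10 nM TAMRA probe and 70 nM GST-GRP. FP (mP) read after 30–90 min against zero-time and no-enzyme controls.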
For orientation: Fluorescence polarisation rises when a labelled molecule tumbles more slowly, as on binding a larger partner.

The target of assay [4] is human SMG-1 (hSMG-1) (Homo sapiens, UniProt Q96Q15). The experiment in a line: hSMG-1 kinase assay (DELFIA). Type of assay: biochemical. As to conditions: read-out: hSMG1 IC50.
Assay [5] concerns the target PI3K-alpha (Homo sapiens, UniProt P42336). The experiment in a line: PI3K-alpha fluorescence polarization assay. Type of assay: biochemical. Conditions: read-out: PI3 Kinase α IC50. The gist of the method: as §2
The target of assay [6] is hSMG-1 (Homo sapiens, UniProt Q96Q15). As to conditions: read-out: hSMG-1 kinase activity IC50; cited from earlier work.
Assay [7] has as its target T1, Human mTOR (Homo sapiens, UniProt P42345). The experiment in a line: mTOR kinase assay (DELFIA format, purified enzyme). Type of assay: biochemical. More on the design: FLAG. Conditions: read-out: TOR Kinase IC50.
For assay [8], the system named is human tumor xenograft models. As to conditions: cited from earlier work.
The target in assay [9] is T1, Human mTOR. As to conditions: read-out: mTOR enzymes IC50; cited from earlier work.
In assay [10] the test system is acute lymphoblastic leukemia xenograft. Conditions: NOS/SCID xenograft mouse model of acute lymphoblastic leukemia; cited from earlier work.

The text below walks through data of patent US20090227575A1, “7H-PYRROLO[2,3-H]QUINAZOLINE COMPOUNDS, THEIR USE AS mTOR KINASE AND PI3 KINASE INHIBITORS, AND THEIR [sequence]” (Wyeth, priority 2008, published 2009).

Where two headings read alike, the source gives them in different places.

human SMG-1 (hSMG-1), sequence (Q96Q15 whole entry): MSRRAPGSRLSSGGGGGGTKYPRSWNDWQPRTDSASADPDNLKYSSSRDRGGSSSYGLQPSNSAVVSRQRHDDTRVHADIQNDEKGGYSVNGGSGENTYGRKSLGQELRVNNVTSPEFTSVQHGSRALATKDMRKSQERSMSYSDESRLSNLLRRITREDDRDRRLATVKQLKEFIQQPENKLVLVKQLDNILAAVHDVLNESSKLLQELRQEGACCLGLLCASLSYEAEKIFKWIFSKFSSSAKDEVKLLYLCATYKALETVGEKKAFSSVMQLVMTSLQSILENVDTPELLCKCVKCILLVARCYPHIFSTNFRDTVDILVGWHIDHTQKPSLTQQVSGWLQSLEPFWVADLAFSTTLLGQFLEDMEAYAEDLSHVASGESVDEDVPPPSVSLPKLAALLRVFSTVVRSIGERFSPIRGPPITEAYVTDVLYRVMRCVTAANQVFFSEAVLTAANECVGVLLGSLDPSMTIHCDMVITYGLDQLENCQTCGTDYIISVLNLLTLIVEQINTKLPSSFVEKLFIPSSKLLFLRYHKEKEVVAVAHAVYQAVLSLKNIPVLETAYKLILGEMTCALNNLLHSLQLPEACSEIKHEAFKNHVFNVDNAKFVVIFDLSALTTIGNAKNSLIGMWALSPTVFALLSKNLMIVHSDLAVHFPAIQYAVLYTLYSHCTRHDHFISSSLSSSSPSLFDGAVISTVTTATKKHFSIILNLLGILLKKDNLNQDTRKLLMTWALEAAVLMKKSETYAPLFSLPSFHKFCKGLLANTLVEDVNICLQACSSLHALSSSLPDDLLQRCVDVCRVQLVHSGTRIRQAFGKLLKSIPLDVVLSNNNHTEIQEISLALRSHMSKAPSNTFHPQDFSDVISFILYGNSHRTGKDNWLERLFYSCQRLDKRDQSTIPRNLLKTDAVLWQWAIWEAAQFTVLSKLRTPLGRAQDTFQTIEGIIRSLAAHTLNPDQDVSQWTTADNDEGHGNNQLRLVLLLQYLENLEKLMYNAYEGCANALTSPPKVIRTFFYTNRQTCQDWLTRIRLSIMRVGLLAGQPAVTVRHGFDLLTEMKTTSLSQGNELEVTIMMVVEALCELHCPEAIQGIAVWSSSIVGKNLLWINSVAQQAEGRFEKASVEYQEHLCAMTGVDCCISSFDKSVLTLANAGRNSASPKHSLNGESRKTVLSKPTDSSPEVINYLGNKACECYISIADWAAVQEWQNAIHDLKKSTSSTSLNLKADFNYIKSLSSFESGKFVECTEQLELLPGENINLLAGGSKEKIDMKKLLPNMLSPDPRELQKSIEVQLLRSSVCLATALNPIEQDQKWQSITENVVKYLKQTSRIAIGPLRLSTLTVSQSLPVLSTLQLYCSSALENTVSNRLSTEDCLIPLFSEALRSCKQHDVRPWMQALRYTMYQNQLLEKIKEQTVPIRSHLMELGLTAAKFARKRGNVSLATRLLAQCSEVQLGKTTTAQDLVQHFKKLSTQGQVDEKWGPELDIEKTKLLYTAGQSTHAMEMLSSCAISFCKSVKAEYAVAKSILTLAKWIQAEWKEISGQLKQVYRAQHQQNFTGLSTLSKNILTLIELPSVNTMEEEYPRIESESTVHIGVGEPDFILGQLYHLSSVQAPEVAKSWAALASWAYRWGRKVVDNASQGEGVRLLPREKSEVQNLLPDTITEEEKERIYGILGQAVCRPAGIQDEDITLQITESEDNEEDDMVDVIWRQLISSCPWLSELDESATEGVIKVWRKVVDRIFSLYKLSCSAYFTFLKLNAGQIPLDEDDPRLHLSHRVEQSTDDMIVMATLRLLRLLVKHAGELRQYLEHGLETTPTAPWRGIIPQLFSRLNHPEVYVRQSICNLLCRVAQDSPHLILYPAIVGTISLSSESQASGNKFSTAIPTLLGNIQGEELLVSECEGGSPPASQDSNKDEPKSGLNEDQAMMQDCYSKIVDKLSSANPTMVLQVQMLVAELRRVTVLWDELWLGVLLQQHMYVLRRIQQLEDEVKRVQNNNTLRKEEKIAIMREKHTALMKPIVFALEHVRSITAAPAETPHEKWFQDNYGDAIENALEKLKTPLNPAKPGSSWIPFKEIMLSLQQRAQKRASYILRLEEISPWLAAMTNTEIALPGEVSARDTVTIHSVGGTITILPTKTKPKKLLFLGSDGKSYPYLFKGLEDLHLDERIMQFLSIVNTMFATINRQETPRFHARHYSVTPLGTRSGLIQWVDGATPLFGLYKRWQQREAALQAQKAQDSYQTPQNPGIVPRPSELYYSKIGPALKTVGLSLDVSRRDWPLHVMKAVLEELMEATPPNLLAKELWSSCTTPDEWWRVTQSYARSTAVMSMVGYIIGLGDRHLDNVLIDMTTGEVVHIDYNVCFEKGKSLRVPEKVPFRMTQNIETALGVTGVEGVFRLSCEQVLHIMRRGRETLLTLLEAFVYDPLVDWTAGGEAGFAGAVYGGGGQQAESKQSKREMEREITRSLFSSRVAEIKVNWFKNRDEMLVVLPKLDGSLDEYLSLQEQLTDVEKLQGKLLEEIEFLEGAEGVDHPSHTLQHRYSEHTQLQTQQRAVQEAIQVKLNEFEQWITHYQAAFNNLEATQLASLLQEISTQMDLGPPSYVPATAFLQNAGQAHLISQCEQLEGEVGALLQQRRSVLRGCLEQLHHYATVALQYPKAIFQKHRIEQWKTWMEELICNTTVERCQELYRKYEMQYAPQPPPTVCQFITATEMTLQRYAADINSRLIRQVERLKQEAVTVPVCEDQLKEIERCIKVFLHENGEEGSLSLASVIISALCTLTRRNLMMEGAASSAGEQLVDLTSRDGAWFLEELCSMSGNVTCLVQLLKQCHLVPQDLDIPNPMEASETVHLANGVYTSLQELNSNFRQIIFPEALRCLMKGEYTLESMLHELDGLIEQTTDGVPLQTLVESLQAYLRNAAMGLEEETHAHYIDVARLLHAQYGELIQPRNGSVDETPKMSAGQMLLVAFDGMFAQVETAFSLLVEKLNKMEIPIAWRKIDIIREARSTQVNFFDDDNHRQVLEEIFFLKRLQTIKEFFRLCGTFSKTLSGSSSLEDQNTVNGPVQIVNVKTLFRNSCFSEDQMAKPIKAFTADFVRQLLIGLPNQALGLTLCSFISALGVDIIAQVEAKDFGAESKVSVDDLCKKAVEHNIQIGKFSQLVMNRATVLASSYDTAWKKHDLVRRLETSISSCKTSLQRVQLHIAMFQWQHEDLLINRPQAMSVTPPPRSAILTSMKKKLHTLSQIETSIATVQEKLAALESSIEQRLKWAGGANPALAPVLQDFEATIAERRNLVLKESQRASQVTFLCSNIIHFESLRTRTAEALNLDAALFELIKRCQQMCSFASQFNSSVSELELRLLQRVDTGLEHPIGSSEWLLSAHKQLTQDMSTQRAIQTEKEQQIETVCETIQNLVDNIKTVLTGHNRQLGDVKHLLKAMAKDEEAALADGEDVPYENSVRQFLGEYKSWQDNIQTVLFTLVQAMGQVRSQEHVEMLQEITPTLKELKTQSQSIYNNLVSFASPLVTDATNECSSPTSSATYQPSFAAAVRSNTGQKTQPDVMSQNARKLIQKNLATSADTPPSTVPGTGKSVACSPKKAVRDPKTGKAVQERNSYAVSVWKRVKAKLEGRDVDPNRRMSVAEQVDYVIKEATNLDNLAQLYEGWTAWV
hSMG-1, sequence (Q96Q15 whole entry): as above
PI3K-gamma, sequence (P48736 whole entry, species assumed): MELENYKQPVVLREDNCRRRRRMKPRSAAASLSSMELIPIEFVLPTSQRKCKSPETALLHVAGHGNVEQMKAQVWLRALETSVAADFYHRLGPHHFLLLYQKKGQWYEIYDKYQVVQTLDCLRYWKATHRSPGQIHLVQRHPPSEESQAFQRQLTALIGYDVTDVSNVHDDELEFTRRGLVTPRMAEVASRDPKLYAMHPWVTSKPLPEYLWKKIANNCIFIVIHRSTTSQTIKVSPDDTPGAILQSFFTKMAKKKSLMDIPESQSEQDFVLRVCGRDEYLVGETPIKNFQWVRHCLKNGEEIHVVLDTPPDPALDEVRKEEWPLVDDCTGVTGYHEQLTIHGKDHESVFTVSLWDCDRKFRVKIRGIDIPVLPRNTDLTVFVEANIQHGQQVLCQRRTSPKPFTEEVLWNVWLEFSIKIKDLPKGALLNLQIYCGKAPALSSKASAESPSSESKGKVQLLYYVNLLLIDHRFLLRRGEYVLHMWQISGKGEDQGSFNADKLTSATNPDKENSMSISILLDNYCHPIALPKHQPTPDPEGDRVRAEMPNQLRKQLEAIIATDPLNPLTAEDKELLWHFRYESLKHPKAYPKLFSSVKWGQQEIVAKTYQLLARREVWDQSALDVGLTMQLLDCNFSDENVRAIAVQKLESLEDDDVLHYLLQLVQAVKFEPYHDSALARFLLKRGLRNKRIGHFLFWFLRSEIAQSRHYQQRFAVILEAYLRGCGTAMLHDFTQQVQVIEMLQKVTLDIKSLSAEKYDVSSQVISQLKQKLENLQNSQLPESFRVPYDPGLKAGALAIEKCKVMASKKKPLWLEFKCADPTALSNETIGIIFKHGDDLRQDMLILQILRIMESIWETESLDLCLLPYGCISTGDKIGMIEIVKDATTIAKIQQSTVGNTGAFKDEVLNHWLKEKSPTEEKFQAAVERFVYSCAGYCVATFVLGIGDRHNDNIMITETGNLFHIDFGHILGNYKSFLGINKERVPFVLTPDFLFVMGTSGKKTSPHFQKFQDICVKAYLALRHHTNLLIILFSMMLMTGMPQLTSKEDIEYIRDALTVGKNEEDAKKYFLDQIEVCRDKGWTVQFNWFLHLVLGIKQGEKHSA

Regarding `CS(=O)(=O)n1ccc2c3nc(-c4ccc(NC(=O)Nc5cccnc5)cc4)nc(N4CCOCC4)c3ccc21` [Example 85, 1-{4-[7-(methylsulfonyl)-4-morpholin-4-yl-7H-pyrrolo[2,3-h]quinazolin-2-yl]phenyl}-3-pyridin-3-ylurea], the IC50 (usually the concentration needed to halve the response being measured) stood at 0.048 µM in assay [1]; 0.07 µM in [2]; 0.142 µM in assay [3]; 0.16 µM in [4]; 0.022 µM in assay [5].

As for `Cn1c(=O)c2c(ncn2C)n(C)c1=O` [caffeine], the IC50 in assay [6] is 300 µM.

Regarding `CCCNC(=O)Nc1ccc(-c2nc(N3CCOCC3)c3ccc4c(ccn4S(C)(=O)=O)c3n2)cc1` [Example 121, 1-{4-[7-(methylsulfonyl)-4-morpholin-4-yl-7H-pyrrolo[2,3-h]quinazolin-2-yl]phenyl}-3-propylurea], the IC50 was 2 µM in [1], 30 µM in [2], 0.14 µM in assay [4] and 0.026 µM in assay [7].

For `Oc1cccc(-c2nc(N3CCOCC3)c3oc4ncccc4c3n2)c1` [PI103, 3-(4-(4-morpholinyl)pyrido[3′,2′:4,5]furo[3,2-d]pyrimidin-2-yl)phenol], the “activity against human tumor models” value in assay [8] (I.P. dosing in mice, U87MG, PC3, MDA-MB-468, MDA-MB-435, HCT 116, SKOV3, IGROV-1) is listed as “demonstrated activity”.

On to `FC(F)c1nc2ccccc2n1-c1nc(N2CCOCC2)nc(N2CCOCC2)n1` [ZSTK474, 2-(2-difluoromethylbenzoimidazol-1-yl)-4,6-dimorpholino-1,3,5-triazine], for which, in [8] (chronic oral administration, 400 mg/kg, A549, PC-3, WiDr), the tumor growth inhibition result was “completely inhibited growth”. Besides, the IC50 in assay [9] is greater than 10 µM.

Turning to `Cn1c(=O)n(-c2ccc(C(C)(C)C#N)cc2)c2c3cc(-c4cnc5ccccc5c4)ccc3ncc21` [NVP-BEZ-235, 2-methyl-2-(4-(3-methyl-2-oxo-8-(quinolin-3-yl)-2,3-dihydro-1H-imidazo[4,5-c]quinolin-1-yl)phenyl)propanenitrile], the “activity against human tumor models” value in [8] (prostrate (PC-3) and glioblastoma (U-87)) is “demonstrated activity”.

On to `COC[C@H]1OC(=O)c2coc3c2[C@@]1(C)C1=C(C3=O)[C@@H]2CCC(=O)[C@@]2(C)C[C@H]1OC(C)=O` [Wortmannin], for which the concentration for half-maximal inhibition (IC50) in assay [6] was roughly 0.06 µM.

With `CCNC(=O)Nc1ccc(-c2nc(N3CCOCC3)c3ccc4c(ccn4S(C)(=O)=O)c3n2)cc1` [Example 89, 1-ethyl-3-{4-[7-(methylsulfonyl)-4-morpholin-4-yl-7H-pyrrolo[2,3-h]quinazolin-2-yl]phenyl}urea], the results for the IC50 in assay [1], in [2] and in assay [4] were 0.69 µM, 1.9 µM and 0.2 µM, respectively.

On to `CNC(=O)Nc1ccc(-c2nc(N3CCOCC3)c3ccc4c(ccn4S(C)(=O)=O)c3n2)cc1` [Example 110, 1-methyl-3-{4-[7-(methylsulfonyl)-4-morpholin-4-yl-7H-pyrrolo[2,3-h]quinazolin-2-yl]phenyl}urea], for which the IC50 in [1] worked out at 0.88 µM; in assay [2], 1.7 µM; in assay [3], 1.91 µM; in assay [4], 0.043 µM; in [5] it was 0.095 µM; in assay [7], 0.002 µM.

Regarding `CO[C@H]1C[C@@H]2CC[C@@H](C)[C@@](O)(O2)C(=O)C(=O)N2CCCC[C@H]2C(=O)O[C@H]([C@H](C)C[C@@H]2CC[C@@H](OC(=O)C(C)(CO)CO)[C@H](OC)C2)CC(=O)[C@H](C)/C=C(\C)[C@@H](O)[C@@H](OC)C(=O)[C@H](C)C[C@H](C)/C=C/C=C/C=C/1C` [Torisel], the “activity in xenograft mouse model” value in assay [10] is “active”.
